Measurements taken from ChEMBL document CHEMBL1127015, “Centrally acting serotonergic and dopaminergic agents. 1. Synthesis and structure-activity relationships of 2,3,3a,4,5,9b-hexahydro-1H-benz[e]indole derivatives” (J Med Chem, 1993).
Where “and” joins values, the source holds several entries; their conditions need not be identical. Equal values may be shown once.

Key:
Felis catus [1] = species: Felis catus; test: Percent of arterial blood pressure at sympathetic nerve activity (SND) dose value was determined; format: functional
Felis catus [2] = test: Effective dose at which the sympathetic nerve activity (SND) has been reduced to 50% of the pretreatment value in anesthetized cat; format: functional
Felis catus [3] = test: Maximum decrease of arterial blood pressure at sympathetic nerve activity (SND) in anesthetized cat has been observed following 1 mg/kg dose; format: functional; set-up: scale not given: the % may be the effect or the level left
Felis catus [4] = test: Maximum decrease of sympathetic nerve activity (SND) in anesthetized cat; format: functional; set-up: scale not given: the % may be the effect or the level left
D(2) dopamine receptor [5] = biological target: T1, D(2) dopamine receptor (Rattus norvegicus, UniProt P61169); test: Inhibitory concentration against [3H]raclopride-labeled dopamine receptor D2 in rat striatum; format: tissue-based
Mus musculus [6] = test: Maximum decrease in temperature when compound is administered subcutaneously; format: functional
Rattus norvegicus [7] = test: Effect on the synthesis rates of serotonin in the rat ventral limbic brain region at 12 micro mol/kg.; format: functional, Limbic system
Rattus norvegicus [8] = test: Effect on the synthesis rates of dopamine in the rat ventral limbic brain region at 12 micro mol/kg.; format: functional, Limbic system
Rattus norvegicus [9] = test: Inhibition of firing rates of serotonergic neurons in the dorsal raphe nucleus by intravenous injection in rats; format: functional
Mus musculus [10] = test: Effective dose on hypothermia in mouse when administered subcutaneously; format: functional; settings: sc
Mus musculus [11] = test: Effective dose on hypothermia in mouse when administered through peroral route; format: functional; settings: po
Mus musculus [12] = test: Maximum decrease in temperature when compound is administered through peroral route; format: functional
D(2) dopamine receptor [13] = biological target: T2, D(2) dopamine receptor (Homo sapiens, UniProt P14416); test: Intrinsic activity from GTP shift using membranes from CHO cells transfected with mammalian dopamine receptor D2.; format: cell membranes
D(2) dopamine receptor [14] = biological target: T2, D(2) dopamine receptor; test: Binding affinity against [3H]U-86,170-labeled dopamine receptor D2 in cloned CHO cells; format: cell-based
Mus musculus [15] = test: Antagonism of apomorphine in reserpinized mice when a dose of 3.8 micro mol/kg is administered intraperitoneally; format: functional
Mus musculus [16] = test: Antagonism of apomorphine in reserpinized mice when a dose of 38 micro mol/kg is administered intraperitoneally; format: functional
Mus musculus [17] = test: Antagonism of apomorphine for 0-10 minutes in reserpinized mice when a dose of 38 micro mol/kg is administered intraperitoneally; format: functional
Mus musculus [18] = test: Antagonism of apomorphine effects for 10-20 minutes in reserpinized mice following 0.4 umol/kg i.p.; format: functional
Mus musculus [19] = test: Antagonism of apomorphine for 10-20 minutes in reserpinized mice when a dose of 3.8 micro mol/kg is administered intraperitoneally; format: functional
Mus musculus [20] = test: Ability to stimulate dopaminergic systems by effect on locomotor activity in reserpinized mice when a dose of 38 micro mol/kg is administered intraperitoneally; format: functional
Mus musculus [21] = test: Antagonism of apomorphine effects for 0-10 minutes in reserpinized mice following 0.4 umol/kg i.p.; format: functional; set-up: unit not given beside the values
Mus musculus [22] = test: Antagonism of apomorphine for 0-10 minutes in reserpinized mice when a dose of 3.8 micro mol/kg is administered intraperitoneally; format: functional
Mus musculus [23] = test: Ability to stimulate dopaminergic systems by effect on locomotor activity in reserpinized mice when a dose of 3.8 micro mol/kg is administered intraperitoneally; format: functional
Mus musculus [24] = test: Increase in locomotor activity in reserpinized mice following 0.4 umol/kg i.p.; format: functional
Mus musculus [25] = test: Antagonism of apomorphine for 10-20 minutes in reserpinized mice when a dose of 38 micro mol/kg is administered intraperitoneally; format: functional
Rattus norvegicus [26] = species: Rattus norvegicus; test: Effect on the synthesis rates of serotonin (5-HTP accumulation) in the rat ventral limbic brain region at 3.8uMkg; format: functional, Limbic system
Rattus norvegicus [27] = test: Inhibition of firing rates of dopaminergic neurons in the substantia nigra pars compacta by intravenous injection in rats.; format: functional; settings: Rattus norvegicus, Substantia nigra pars compacta, iv; read-out: ED50
Mus musculus [28] = test: Antagonism of apomorphine effects in reserpinized mice following 0.4 umol/kg i.p.; format: functional
Rattus norvegicus [29] = species: Rattus norvegicus; test: Effect on the synthesis rates of serotonin (5-HTP accumulation) in the rat ventral limbic brain region at 3.8uMkg.; format: functional, Limbic system
D(2) dopamine receptor [30] = biological target: T1, D(2) dopamine receptor; test: Binding affinity against [3H]raclopride-labeled dopamine receptor D2 in rat striatum.; format: tissue-based
Rattus norvegicus [31] = species: Rattus norvegicus; test: Effect on the synthesis rates of serotonin (5-HTP accumulation) in the rat ventral limbic brain region at 10.2uMkg.; format: functional, Limbic system
D(2) dopamine receptor [32] = biological target: T1, D(2) dopamine receptor; test: Inhibition concentration against [3H]raclopride-labeled dopamine receptor D2 in rat striatum was estimated by single point experiment. compound was run at 1 uM; format: tissue-based
Mus musculus [33] = test: Effective dose on hypothermia in mouse when administered subcutaneously (95% confidence levels); format: functional; settings: sc
Rattus norvegicus [34] = test: Effect on the synthesis rates of serotonin in the rat ventral limbic brain region 4.0 micro mol/kg. Values are given as percent change from the control; format: functional, Limbic system
Rattus norvegicus [35] = test: Effect on the synthesis rates of dopamine in the rat ventral limbic brain region at 4.0 micro mol/kg. Values are given as percent change from the control (*p<0.05); format: functional, Limbic system
D(2) dopamine receptor [36] = biological target: T1, D(2) dopamine receptor; test: Compound was evaluated for the binding affinity against [3H]U-86,170-labeled dopamine receptor D2 in cloned CHO cells; format: cell-based
Rattus norvegicus [37] = test: Effect on the synthesis rates of serotonin in the rat ventral limbic brain region at 2.7 micro mol/kg; format: functional, Limbic system

T2 sequence (P14416 whole entry): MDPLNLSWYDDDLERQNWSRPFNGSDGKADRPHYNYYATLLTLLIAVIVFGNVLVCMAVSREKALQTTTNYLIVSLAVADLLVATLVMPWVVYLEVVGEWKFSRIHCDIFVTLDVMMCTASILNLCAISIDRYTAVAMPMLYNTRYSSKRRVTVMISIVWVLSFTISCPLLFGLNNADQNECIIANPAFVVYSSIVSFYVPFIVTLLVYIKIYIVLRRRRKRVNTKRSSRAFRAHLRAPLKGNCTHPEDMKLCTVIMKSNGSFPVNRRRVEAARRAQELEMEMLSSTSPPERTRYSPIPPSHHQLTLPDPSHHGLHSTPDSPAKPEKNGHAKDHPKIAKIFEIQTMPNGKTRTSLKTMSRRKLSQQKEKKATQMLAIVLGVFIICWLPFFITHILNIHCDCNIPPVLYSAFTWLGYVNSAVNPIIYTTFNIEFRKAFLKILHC
T1 sequence (P61169 whole entry): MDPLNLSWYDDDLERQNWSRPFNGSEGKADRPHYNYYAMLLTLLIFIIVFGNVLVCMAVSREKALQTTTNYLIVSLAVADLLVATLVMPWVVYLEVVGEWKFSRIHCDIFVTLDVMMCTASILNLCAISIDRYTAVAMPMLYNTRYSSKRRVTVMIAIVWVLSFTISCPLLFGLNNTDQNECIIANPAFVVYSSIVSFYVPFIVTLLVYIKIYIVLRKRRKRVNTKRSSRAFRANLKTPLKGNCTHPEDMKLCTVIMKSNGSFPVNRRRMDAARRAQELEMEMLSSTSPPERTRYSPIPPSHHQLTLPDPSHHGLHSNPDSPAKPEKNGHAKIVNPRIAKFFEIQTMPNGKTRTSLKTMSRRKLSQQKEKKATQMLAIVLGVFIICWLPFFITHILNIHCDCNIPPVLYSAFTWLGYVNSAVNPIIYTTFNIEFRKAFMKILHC

Compound	Max temperature decrease (Mus musculus [6])	Locomotor activity (Mus musculus [15])	Locomotor activity (Mus musculus [16])	Locomotor activity (Mus musculus [17])	Locomotor activity (Mus musculus [18])	Locomotor activity (Mus musculus [19])	Locomotor activity (Mus musculus [20])	Locomotor activity (Mus musculus [21])	Locomotor activity (Mus musculus [22])	Locomotor activity (Mus musculus [23])	Locomotor activity (Mus musculus [24])	Locomotor activity (Mus musculus [25])	Locomotor activity (Mus musculus [28])	other results
C=CCN1CC[C@H]2c3ccccc3CC[C@H]21 (racemic)	4.4													BP (Felis catus [1]): 76%; ED50 (Felis catus [2]): 0.36 µmol/kg; Control (Felis catus [3]): 60%; Control (Felis catus [4]): 0%; IC50 (D(2) dopamine receptor [5]): > 1 µM; Control (Rattus norvegicus [7]): -46%; Control (Rattus norvegicus [8]): 20%; ED50 (Rattus norvegicus [9]): 0.12 µmol/kg; ED50 (Mus musculus [10]): 22 µmol/kg; ED50 (Mus musculus [11]): 69 µmol/kg; Max temperature decrease (Mus musculus [12]): 4
C=CCN1CC[C@@H]2c3cccc(O)c3CC[C@H]21 (racemic)	2.1	67	6	5	83	82	53	65	29	4	12	8	109	Intrinsic activity (D(2) dopamine receptor [13]): 44%; Ki (D(2) dopamine receptor [14]): 0.0041 µM; Control (Rattus norvegicus [26]): 73%; ED50 (Rattus norvegicus [27]): 0.97 µmol/kg; ED50 (Mus musculus [10]): 113 µmol/kg; Control (Rattus norvegicus [29]): -12%
COc1cccc2c1CC[C@@H]1[C@H]2CCN1CC1CC1 (racemic)														Ki (D(2) dopamine receptor [30]): > 10 µM; Control (Rattus norvegicus [31]): -15% and -7%
C=CCN1CC[C@@H]2c3ccccc3CC[C@H]21 (racemic)	4.5													Ki (D(2) dopamine receptor [32]): > 1 µM; ED50 (Mus musculus [33]): 45 µmol/kg; Control (Rattus norvegicus [34]): -7%; Control (Rattus norvegicus [35]): 26%
C=CCN1CC[C@H]2c3c(O)cccc3CC[C@H]21 (racemic)		8	11	54	62	68	32	56	78	63	135	69	46	Ki (D(2) dopamine receptor [36]): 0.153 µM
C=CCN1CCC2c3cccc(O)c3CC[C@H]21 (single isomer, unassigned; (-))		62	7	22	105	115	3	110	97	8	73	23	54	Intrinsic activity (D(2) dopamine receptor [13]): 22%; Ki (D(2) dopamine receptor [14]): 0.108 µM; Ki (D(2) dopamine receptor [30]): 0.049 µM; Control (Rattus norvegicus [26]): 45%; Control (Rattus norvegicus [29]): -0.3%
O=C(CCCN1CCC(O)(c2ccc(Cl)cc2)CC1)c1ccc(F)cc1 [HALOPERIDOL]														Control (Rattus norvegicus [37]): -7%
